The target of one data set is c-Src SH3^P133L (Gallus gallus, UniProt P00523, P133L). Briefly: Fluorescence polarization direct binding assay, c-Src SH3^P133L. Further details: species or system chicken. On the procedure:
(§1) Polarization was measured by excitation with vertically polarized light at 485 nm and the fluorescence emission detected at 530 nm in both the vertical and horizontal directions. An average of five measurements were recorded for each well. Samples were equilibrated at room temperature for 25 min before analysis, a time sufficient for the binding reactions to reach equilibrium. The polarization data were fit using Kaleidagraph v3.6 software to Eq. 5, which is derived from first principles without assumptions. […] In this equation, Pobs is the observed polarization value at any given concentration of target protein (GST•SH3 domain). Pmin is the polarization of peptide^Flu at 50 nM in the absence of target protein. Pmax is the maximum polarization of peptide^Flu at saturation with target protein. Kd is the equilibrium dissociation constant. […] Free fits are shown. Kd values were estimated as described.
(In general: Polarisation of emitted light reports the rotation of a fluorescent probe.)

Data set [1] concerns the target Fyn SH3 domain-GST fusion protein (Homo sapiens, UniProt P06241). Kind of data set: Fluorescence polarization direct binding assay, Fyn SH3. On the procedure: (§2) Polarization was measured by excitation with vertically polarized light at 485 nm and the fluorescence emission detected at 530 nm in both the vertical and horizontal directions. An average of five measurements were recorded for each well. Samples were equilibrated at room temperature for 25 min before analysis, a time sufficient for the binding reactions to reach equilibrium. The polarization data were fit using Kaleidagraph v3.6 software to Eq. 5, which is derived from first principles without assumptions. […] In this equation, Pobs is the observed polarization value at any given concentration of target protein (GST•SH3 domain). Pmin is the polarization of peptide^Flu at 50 nM in the absence of target protein. Pmax is the maximum polarization of peptide^Flu at saturation with target protein. Kd is the equilibrium dissociation constant. […] In these cases a lower limit Kd was estimated by setting Pmax equal to the observed polarization at the highest target protein concentration tested, which was often limited by solubility. […] Free fits are shown. Kd values were estimated as described. […] In several cases, the plots of polarization versus [SH3 domain] began to increase at high [SH3 domain] (>50 micromolar), perhaps because of a second binding event. In these cases (indicated by an asterisk (*) in Table 5), data above 50 micromolar target protein was excluded during the curve fits.

Data set [2] addresses c-Src SH3 domain-GST fusion protein (Gallus gallus, UniProt P00523). Briefly: Fluorescence polarization direct binding assay, c-Src SH3. Details: species or system chicken. As to the method:
as §1

Data set [3] has as its target Lck SH3 domain-GST fusion protein (Homo sapiens, UniProt P06239). Briefly: Fluorescence polarization direct binding assay, Lck SH3. As to the method: as §2
The target of data set [4] is Lyn SH3 domain-GST fusion protein (Homo sapiens, UniProt P07948). Kind of data set: Fluorescence polarization direct binding assay, Lyn SH3. As to the method: as §2
Chain of Lyn SH3 domain-GST fusion protein (P07948 62-122): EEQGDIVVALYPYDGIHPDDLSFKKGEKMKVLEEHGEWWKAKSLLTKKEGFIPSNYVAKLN
Data set [5] deals with Hck SH3 domain-GST fusion protein (Homo sapiens, UniProt P08631). Kind of data set: Fluorescence polarization direct binding assay, Hck SH3. On the procedure:
as §1

A short description of data set [6]: Temperature-dependent sedimentation equilibrium of aPP^Y7AP13SV14P, monomer-dimer-tetramer fit. It is filed as physicochemical. Particulars: for % monomer: at 30 micromolar total peptide concentration; for ln KA (m): m fixed to 4 (tetramer), PBS. As to the method:
aPP^Y7AP13SV14P samples were prepared in Dulbecco's PBS buffer (as described above) at concentrations of 45, 90, and 180 micromolar. Sedimentation equilibrium experiments were performed as described above and monitored at 280 nm. Samples were centrifuged to equilibrium at three speeds (42,000, 50,000, and 60,000 rpm) at 5, 10, 15, 20, 25, and 30° C. The rotor containing the samples was agitated manually between temperature runs to redistribute the sample along the length of the cell and checked by an initial scan.
The sedimentation data obtained for aPP^Y7AP13SV14P at each temperature was globally fit to Eq. 2 as described above. […] Therefore, the data from within each temperature set was then globally fit to a monomer-n-mer-m-mer model. Based on the self-association trends of the other aPP variants, in which the folded peptides best fit to a monomer-dimer model and the unfolded peptides fit to a monomer-tetramer model, the values for n and m were fixed to 2 and 4 respectively. Data fit with these parameters and the resulting residuals are presented in FIG. 5 and a summary of the fitted parameter results are given in Table 3. […] Samples were prepared in PBS buffer (90 micromolar) and centrifuged to equilibrium at speeds of 42,000 (51), 50,000 (52), and 60,000 (53) rpm.

A short description of data set [7]: Circular dichroism (wavelength- and temperature-dependent) of aPP variants, Example 1. Conditions: 30 micromolar; for CD ellipticity at 222 nm: Tris buffer pH 8.0, 25° C. The class given is physicochemical. As to the method:
The CD spectra of each peptide (30 micromolar) were acquired in Tris buffer (25 mM Tris base, 50 mM NaCl, (pH 8.0)) at 25° C. in a 2 mm cell. Samples were scanned between 200 and 260 nm, with signal sampling every 0.5 nm, and three successive scans were averaged. Molar residue ellipticity values were calculated from the equation MRE=(Θsample−Θbuffer)/(L×c×n×1000), where Θ is the observed signal in millidegrees, L is the length of the cuvette in cm, c is the concentration of peptide in dmol cm^−3 and n is the number of amino acids in the molecule.
Temperature-dependent CD spectra of aPP^Y7AP13SV14P (30 micromolar) were acquired in Dulbecco's PBS (1 mM KH2PO4, 155 mM NaCl, 3 mM Na2HPO4, (pH 7.4)) in a 2 mm cell. The signal at 222 nm (MRE222) was monitored between 1° C. and 80° C. using the variable temperature module provided with the instrument. Data were collected with a 0.5° C. data pitch, 5 s delay time, 20° C./hour temperature slope, 4 s response, and 1 nm bandwidth. CD spectra were obtained as the temperature was raised and when the temperature was lowered to establish the reversibility of the folding transition. Additionally, a full wavelength scan was obtained before and after the thermal melt; an overlay of the two spectra is shown in FIG. 3A. […] Mean residue ellipticity values for the temperature dependent CD spectrum were calculated from the equation MRE=Θ222 nm/(L×c×n×1000), where Θ is observed signal at 222 nm (mdeg), L is the length of, the cuvette (cm), c is the concentration of peptide (dmol/cm^3) and n is the number of amino acids in the molecule. The first derivatives of the temperature-dependent CD spectra are shown in FIG. 3B, which is a plot of δMRE222/δT (units of deg cm^2 dmol^−1 K^−1). The Tm value reported in the main text corresponds to the temperature at which ∂MRE222/∂T is a maximum.
On the technique in general: CD spectra are sensitive to the conformation of chiral molecules.

A short description of data set [8]: Sedimentation equilibrium analytical ultracentrifugation of aPP variants, monomer-n-mer fit (self-association). The class given is physicochemical. Conditions: for % monomer at 30 μM: 30 μM peptide; for % monomer at 30 μM / lnKA when n = 2 / n (stoichiometry of the self-associated complex): 25° C.; for lnKA when n = 2: monomer-dimer; for n (stoichiometry of the self-associated complex): monomer-n-mer fit; for Kd (self-association, dimer): n = 2, 25° C., calculated from ln KA. On the procedure:
Analytical ultracentrifugation experiments were performed using peptide solutions prepared in Tris.Cl buffer (25 mM Tris base, 50 mM NaCl, (pH 8.0)) at the appropriate concentrations (5 micromolar to 200 micromolar). Samples were then centrifuged to equilibrium at 25° C. at 42,000, 50,000, and 60,000 rpm. Data were collected with a 0.001 cm step size and successive scans were initiated at 2 h intervals. Samples were judged to have reached equilibrium when the radial concentration gradient remained unchanged over three successive scans using the Match module of Heteroanalysis software v1.1.19. The solvent density (ρ, rho) and partial specific volume ( ν, nu) were calculated using the Sedimentation Interpretation Program “Sednterp” software v1.08.
The data for each peptide (multiple concentrations at three speeds) was first fit globally to an equation describing the sedimentation of an ideal species of molecular weight Mn (Eq. 1) using Heteroanalysis software v1.1.19:
where C represents the concentration of the sedimenting species at distances r and r0 cm from the center of rotation; ν (nu) is the partial specific volume of the sedimenting species in cc/g; ρ (rho) is the density of the supporting buffer in g/cc; ω (omega) is the angular velocity of the rotor (radians/s); Mn is the “molar” molecular weight of sedimenting species (g/mol); R is the universal gas constant (8.315×10^7 ergs K^−1 mol^−1) and T is the temperature in degrees Kelvin.
In order to quantify this self-association, the data for each peptide was next fit globally to a monomer-n-mer equilibrium model using Eq. 2:
where n is the stoichiometry of the self-associated complex. Errors were calculated for n and lnKA using f-statistics to two standard deviations.
Samples were prepared in PBS buffer and centrifuged at speeds of 42,000 (41), 50,000 (42), or 60,000 RPM (43) at 25° C. Experimental data are shown as points; lines indicate the best fit to a monomer-n-mer model described by Eq. 2.

For data set [9] the following is noted: pH- and temperature-dependent; read-out: equilibrium dissociation constant (Kd) of the aPP dimer; cited from earlier work.

No end group written: not given here.

Chain of Fyn SH3 domain-GST fusion protein (P06241 81-142): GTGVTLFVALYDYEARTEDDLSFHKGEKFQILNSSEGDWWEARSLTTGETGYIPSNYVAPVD
Chain of Lck SH3 domain-GST fusion protein (P06239 62-128): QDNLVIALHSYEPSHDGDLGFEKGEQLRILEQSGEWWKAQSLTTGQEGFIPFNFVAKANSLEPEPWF
Chain of Hck SH3 domain-GST fusion protein (P08631 77-137): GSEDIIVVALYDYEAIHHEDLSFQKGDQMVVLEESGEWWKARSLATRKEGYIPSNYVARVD

Take `CC(C)C[C@H](NC(=O)[C@@H]1CCCN1C(=O)[C@@H]1CCCN1C(=O)[C@H](C)NC(=O)CNC(=O)CNC(=O)[C@@H](N)CSCC(=O)Nc1ccc2c(c1)C(=O)OC21c2ccc(O)cc2Oc2cc(O)ccc21)C(=O)N1CCC[C@H]1C(=O)N1CCC[C@H]1C(=O)N[C@@H](CCCNC(=N)N)C(=O)N[C@@H](CC(N)=O)C(=O)N[C@@H](CCCNC(=N)N)C(=O)N1CCC[C@H]1C(=O)N[C@@H](CCCNC(=N)N)C(N)=O` [^Flu1]: the Kd on c-Src SH3^P133L was greater than 100000 nM; in data set [1], 1400 ± 200 nM; in data set [2], 1500 ± 100 nM; in data set [3], greater than 20000 nM; in data set [4] it was 2000 ± 300 nM; in data set [5], 1600 ± 200 nM.
Take “GPSQPTAPGDDASPEDLIRFYDNLQQYLNVVTRHRY [aPP^Y7AP13SV14P]”: the “n (monomer-n-mer fit, Eq. 2)” value is 2.5 in [6] (5° C.) and 3.6 in data set [6] (30° C.). The “% monomer” value in data set [6] (5° C.) was 74%; in data set [6] (10° C.) it was 82%; in [6] (15° C.), 84%; in data set [6] (20° C.), 90%; in data set [6] (25° C.), 90%; in [6] (30° C.) it was 98%. Moreover, the “ln KA (m)” value in data set [6] (5° C.) was 25.7 (25.3, 26.0); in data set [6] (10° C.), 25.3 (25.0, 25.5); in data set [6] (15° C.) it was 25.6 (25.4, 25.8); in [6] (20° C.), 25.0 (24.8, 25.2); in data set [6] (25° C.), 25.7 (25.4, 26.0); in [6] (30° C.) it was 24.4 (24.2, 24.5). For the same molecule, the “KD (tetramer, monomer/dimer/tetramer model)” value in data set [6] (25° C.) is 6.8×10^−12 M^3. For the same molecule, in data set [6] (25° C., at 30 micromolar), the “% dimer” value was 9%. The “% tetramer” value in data set [6] (25° C., at 30 micromolar) was 1%. The molecule also came in with a CD ellipticity at 222 nm in data set [7] of -9700 deg cm^2 dmol^−1. Further, the “Tm (cooperative unfolding transition)” value in [7] (temperature-dependent CD at 222 nm) was determined as 20 °C.
Regarding “GPSQPTYPGDDAPVEDLIRFADNLQQYLNVVTRHRY [aPP^Y21A]”, in data set [8], the “% monomer at 30 μM” value came to 14%; the “lnKA when n = 2” value was “when n = 2 13.57”; the “n (stoichiometry of the self-associated complex)” value came out at 1.86; the “Kd (self-association, dimer)” value is 1300 nM. The molecule also gave a CD ellipticity at 222 nm in data set [7] of -14700 deg cm^2 dmol^−1.
With “avian pancreatic polypeptide (GPSQPTYPGDDAPVEDLIRFYDNLQQYLNVVTRHRY; ends and bridges not checked) [aPP, purchased from American Peptide Company, reference compound]”, in [8], the “% monomer at 30 μM” value is 23%; the “lnKA when n = 2” value was “when n = 2 12.41”; the “n (stoichiometry of the self-associated complex)” value is 1.92; the “Kd (self-association, dimer)” value was 4100 nM. Also, the “% in the dimer state at 30 micromolar” value in data set [8] (30 micromolar) is given as greater than 94%. Besides, the Kd in [9] was 0.4 to 5000 nM.

The values above are taken from US20100273722A1, “MODIFIED MINIATURE PROTEINS” (Yale University, priority 2007, published 2010).
